Source: patent US20250230226A1, “PLXDC1/PLXDC2 ACTIVATORS AND THEIR USE IN THE TREATMENT OF BLOOD VESSEL DISORDERS” (THE REGENTS OF THE UNIVERSITY OF CALIFORNIA, priority 2019, published 2025)

Assays:
[1] = test system: LL/2 lung cancer tumor endothelial cells; experiment: Lung LL2 ex vivo model of tumor angiogenesis; assay type: cell-based, mouse; conditions: 20 μm
Outline: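 Live/dead imaging with FDA and PI, taken e.g. 48 h post-drug under fixed channel settings, measures treatment effects on endothelial cells sprouting from Lewis lung tumor explants. Explants were seeded in Matrigel drops and grown ~4 days in endothelial growth medium, 37 °C, 5% CO2, before dosing.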

pathogenic blood vessels = experiment: Ischemia-induced retinopathy in vivo (FIG. 22); set-up: species or system mice; conditions: subcutaneous injection during return to room air; n=10 retinas
Source text: A. Upper graph: Schematic diagram of the experimental design for ischemia-induced retinopathy. The high oxygen environment caused blood vessel loss (vaso-obliteration). In room air, loss of vessels triggered abnormal angiogenesis that generated pathogenic blood vessels on the top of the retina (marked in yellow in D). Treatment was applied during the return to room air by subcutaneous injection. Lower graph: quantitation of healthy blood vessels, vaso-obliteration and pathogenic blood vessels between the control (n=10) and treated retinas (n=10). […] B. Representative images of flat-mounted control retinas (upper two images) and retinas from compound treated mice (lower two images). Red signal is blood vessel marker. C. The same retinas in B with vaso-obliteration areas marked in white color. These images illustrate that compound-treated retinas went through vaso-obliteration like the control retinas. D. The same retinas in B with pathogenic blood vessels marked in yellow color.
FIG. 22A includes a schematic diagram of the experimental design for ischemia-induced retinopathy. The high oxygen environment caused blood vessel loss (vaso-obliteration). In room air, loss of vessels triggered abnormal angiogenesis that generated pathogenic blood vessels on the top of the retina (marked in yellow in FIG. 22D). Treatment was applied during the return to room air by subcutaneous injection. […]

PLXDC2 = biological target: T1, PLXDC2 (Homo sapiens, UniProt Q6UX71); experiment: Gfi1b promotor luciferase receptor activation assay, PLXDC2-expressing cells (FIG. 18B); assay type: cell-based; conditions: compound treatments 1 day
T1 construct: host or cells: PLXDC2-expressing cells
T1 sequence (Q6UX71 31-529): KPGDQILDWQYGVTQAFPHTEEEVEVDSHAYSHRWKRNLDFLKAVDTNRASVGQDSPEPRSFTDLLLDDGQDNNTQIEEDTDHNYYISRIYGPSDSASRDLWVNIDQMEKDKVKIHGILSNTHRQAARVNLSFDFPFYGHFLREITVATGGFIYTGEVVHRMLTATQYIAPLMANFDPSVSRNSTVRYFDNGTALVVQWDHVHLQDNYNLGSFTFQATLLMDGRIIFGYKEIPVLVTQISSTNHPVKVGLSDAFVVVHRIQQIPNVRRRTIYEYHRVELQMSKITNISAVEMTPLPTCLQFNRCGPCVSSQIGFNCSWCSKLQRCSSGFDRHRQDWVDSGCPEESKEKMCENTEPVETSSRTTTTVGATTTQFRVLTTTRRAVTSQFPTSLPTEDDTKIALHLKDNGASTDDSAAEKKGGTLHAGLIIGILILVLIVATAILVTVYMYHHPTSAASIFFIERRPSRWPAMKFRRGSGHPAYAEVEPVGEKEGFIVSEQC
Source text: FIG. 18A-B show activation of PLXDC1 and PLXDC2 by small molecules. […] All compound treatments were done for 1 day. Basal promotor activity of the PLXDC1-expressing cells is defined as 1.
By linking its promotor to a luciferase reporter gene, this example developed a PLXDC1 receptor activation assay.

## CCCCCCCCCCCCCCOc1ccc(S(=O)(=O)c2cnc3ccc([S+](C)[O-])cc3c2N2CCC(N3CCC(N4CCN(C)CC4)CC3)CC2)cc1 (centres unmarked) [Compound 346]
[1]; 48 hours, LL/2 tumor endothelial cells
  48 hrs (morphology observations): * (50% or less of cells vesicularize in cell shape)
[1]; drug treatment for two days, ratio of red area to total endothelial cell area
  Cell death: 20%
Pathogenic blood vessels
  Healthy blood vessels: improving the amount of healthy blood vessels
  Pathogenic blood vessels: highly suppressed pathogenic blood vessels
PLXDC2
  Gfi1b promotor activity in PLXDC2-expressing cells: activated the promotor activity in PLXDC2-expressing cells
